Data taken from ChEMBL document CHEMBL1142447, “Insights into the mechanism of Na+,K+-ATPase inhibition by 2-methoxy-3,8,9-trihydroxy coumestan” (Bioorg Med Chem, 2008).
Activity calls are given as the source filed them. No cut-off for these calls is given here.

Key:
[1] = Inhibition of rat kidney Na(+)/K(+) ATPase
Rattus norvegicus [2] = species: Rattus norvegicus; assay: Inhibition of Na(+)/K(+) ATPase in rat kidney assessed as decrease in free sulfydryl groups level at 30 uM after 1 hr by Ellman's method
[3] = Inhibition of rat stomach H(+)/K(+) ATPase after 2 hrs by Fiske and Subbarow method; format: tissue-based
[4] = Inhibition of rat gastrocnemius Ca2+/Mg2+ ATPase after 2 hrs; format: tissue-based
Rattus norvegicus [5] = species: Rattus norvegicus; assay: Inhibition of rat kidney Na(+)/K(+) ATPase assessed as enzyme activity at 30 uM after 2 hrs by Fiske and Subbarow method relative to control; set-up: scale not given: the % may be the effect or the level left
Rattus norvegicus [6] = species: Rattus norvegicus; assay: Inhibition of rat kidney Na(+)/K(+) ATPase assessed after 2 hrs by Fiske and Subbarow method in presence of DTT
Rattus norvegicus [7] = species: Rattus norvegicus; assay: Inhibition of rat kidney Na(+)/K(+) ATPase assessed as enzyme activity at 30 uM after 2 hrs by Fiske and Subbarow method relative to control in presence of 1 mM cysteine; set-up: scale not given: the % may be the effect or the level left
Rattus norvegicus [8] = species: Rattus norvegicus; assay: Inhibition of rat kidney Na(+)/K(+) ATPase assessed as enzyme activity preincubated for 30 mins after 2 hrs by Fiske and Subbarow method in presence of beta mercaptoethanol
Rattus norvegicus [9] = species: Rattus norvegicus; assay: Inhibition of rat kidney Na(+)/K(+) ATPase assessed as enzyme activity at 30 uM after 2 hrs by Fiske and Subbarow method relative to control in presence of 500 uM beta mercaptoethanol; set-up: scale not given: the % may be the effect or the level left
Rattus norvegicus [10] = species: Rattus norvegicus; assay: Inhibition of rat kidney Ca2+/Mg2+ ATPase assessed after 2 hrs by Fiske and Subbarow method in presence of DTT
Rattus norvegicus [11] = species: Rattus norvegicus; assay: Inhibition of rat kidney Na(+)/K(+) ATPase assessed as enzyme activity at 1 mM after 2 hrs by Fiske and Subbarow method relative to control in presence of 500 uM beta mercaptoethanol; set-up: scale not given: the % may be the effect or the level left
Rattus norvegicus [12] = species: Rattus norvegicus; assay: Inhibition of rat kidney Na(+)/K(+) ATPase assessed as enzyme activity at 1 mM after 2 hrs by Fiske and Subbarow method relative to control in presence of 1 mM cysteine; set-up: scale not given: the % may be the effect or the level left
Rattus norvegicus [13] = species: Rattus norvegicus; assay: Inhibition of rat kidney Na(+)/K(+) ATPase at 1 mM after 2 hrs by Fiske and Subbarow method in presence of DTT
Rattus norvegicus [14] = species: Rattus norvegicus; assay: Inhibition of rat kidney Na(+)/K(+) ATPase assessed as enzyme activity at 1 mM after 2 hrs by Fiske and Subbarow method relative to control; set-up: scale not given: the % may be the effect or the level left

## COc1cc2c(cc1O)oc(=O)c1c3cc(O)c(O)cc3oc21
[1]
  IC50: 3 µM
Rattus norvegicus [2]
  Activity: Active
[3]
  IC50: 30 µM
[4]
  IC50: 10 µM
Rattus norvegicus [5]
  Activity: 6.9%
Rattus norvegicus [6]
  Activity: inactive
Rattus norvegicus [7]
  Activity: 75.5%
Rattus norvegicus [8]
  Activity: Active
Rattus norvegicus [9]
  Activity: 81.3%
Rattus norvegicus [10]
  Activity: inactive

## C[C@@H]1O[C@@H](O[C@H]2C[C@@H](O)[C@]3(CO)[C@H]4[C@H](O)C[C@]5(C)[C@@H](C6=CC(=O)OC6)CC[C@]5(O)[C@@H]4CC[C@]3(O)C2)[C@H](O)[C@H](O)[C@H]1O
Rattus norvegicus [11]
  Activity: 10.5%
Rattus norvegicus [12]
  Activity: 12%
Rattus norvegicus [13]
  Activity: Active
Rattus norvegicus [14]
  Activity: 11.6%
